We go through 20 compounds from US20150164910A1, “ANTIVIRAL COMPOUNDS AND METHODS OF USE” (The Regents of the University of Califonia, priority 2012, published 2015).

In assay [1] the test system is CVB3-H3. Briefly: Plaque reduction assay, CVB3-H3 in HeLa-RW cells. The class given is cell-based, coxsackievirus B3. To be noted: compound added 30 min before infection, CVB3-H3 MOI 1, HeLa-RW, 6 hours; log10(titer with DMSO only/titer with inhibitor). (Plaque reduction counts the foci of infection that form in a cell layer.)
Assay [2] has as its system eGFP-expressing recombinant CVB3. The class given is cell-based, coxsackievirus B3. To be noted: for % of eGFP + cells, 0 Hr: compound added 0 hr post infection at its peak activity concentration, DMSO 26.0; for % of eGFP + cells, 0 Hr / % of eGFP + cells, 1 Hr / % of eGFP + cells, 2 Hr: read 6 hr post infection; for % of eGFP + cells, 1 Hr: compound added 1 hr post infection at its peak activity concentration, DMSO 23.7; for % of eGFP + cells, 2 Hr: compound added 2 hr post infection at its peak activity concentration, DMSO 24.8; for Inhibition of infected cells: eGFP-CVB3 m.o.i=1, compound added at time of infection, 6 hr post infection, 1-(% eGFP+ cells with compound/% with DMSO only).

Assay [3] relates to coxsackievirus B3 (CVB3). Briefly: Cell viability assay, prevention of cell death caused by CVB3 infection. The class given is cell-based. The note with it: for Selectivity index: 50% Cytotoxic concentration/50% activity concentration; for IC50 / EC (peak activity): Enterovirus B; for IC50: read-out: 50% activity concentration (IC50); for EC (peak activity): HeLa-RW cells and CVB3 at low multiplicity of infection, read-out: Peak Activity Conc. As to the method:
Procedure: Enteroviruses rapidly cause cell death, and a cell viability assay was used to examine the cytotoxicity of each compound and to identify the concentration needed to prevent cell death caused by coxsackievirus B3 (CVB3) infection.
Compounds were diluted two-fold and added to wells of 384 well plate. HeLa-RW cells were then added (cytotoxicity testing), or cells and CVB3 were added to provide a low multiplicity of infection to determine concentration of peak activity or 50% maximal concentration. Selectivity index is defined as the 50% Cytotoxic concentration/50% activity concentration

For the compound `N#Cc1ccc(OCc2nc3ccccc3n2-c2ccccc2)cc1` [Compound 42, 4-[(1-Phenyl-1H-benzimidazol-2-yl)methoxy) benzonitrile], the “Log10 reduction of virus titer” value in assay [1] came out at 4.5. Further, in assay [2], the “% of eGFP + cells, 0 Hr” value was found to be 0.0%; the “% of eGFP + cells, 1 Hr” value is 0.1%; the “% of eGFP + cells, 2 Hr” value is listed as 0.0%; the “Inhibition of infected cells” value came out at 100%. In assay [3], the Selectivity index was 8, the IC50 is 3000 nM and the EC (peak activity) amounted to 6.25 µM.
As to `Cc1ccc(-c2cc(C(=O)NN)c3ccccc3n2)s1` [Compound 25, 2-(5-Methyl-2-thienyl)-4-quinoline-carbohydrazide], in assay [1], the “Log10 reduction of virus titer” value was found to be 3.7. Moreover, in assay [2], the “% of eGFP + cells, 0 Hr” value is reported as 0.1%; the “% of eGFP + cells, 1 Hr” value was found to be 0.1%; the “% of eGFP + cells, 2 Hr” value was 0.0%; the “Inhibition of infected cells” value worked out at 100%. Besides, in assay [3], the Selectivity index is 32, the IC50 amounted to 780 nM and the EC (peak activity) came to 3.13 µM.
On to `Cc1ccccc1NC(=O)c1cc(-c2cccs2)nc2c1cnn2C(C)C` [Compound 1, 1-Isopropyl-N-(2-methylphenyl)-6-(2-thienyl)-1H-pyrazolo [3,4-b]pyridine-4-carboxamide], for which the “Log10 reduction of virus titer” value in assay [1] was 4.4. In addition, in assay [2], the “% of eGFP + cells, 0 Hr” value is 0.0%; the “% of eGFP + cells, 1 Hr” value is given as 0.0%; the “% of eGFP + cells, 2 Hr” value is 0.0%; the “Inhibition of infected cells” value is given as 100%. Also, in assay [3], the Selectivity index was 42, the IC50 is 600 nM and the EC (peak activity) worked out at 1.56 µM.
Turning to `CC(C)n1ncc2c(C(=O)Nc3ccc4c(c3)OCO4)cc(-c3ccccc3)nc21` [Compound 21, N-(1,3-Benzodioxol-5-yl)-1-isopropyl-6-phenyl-1H-pyrazolo [3,4-b]pyridine-4-carboxamide], the “Log10 reduction of virus titer” value in assay [1] is 4.5. Moreover, in assay [2], the “% of eGFP + cells, 0 Hr” value amounted to 0.0%; the “% of eGFP + cells, 1 Hr” value amounted to 0.0%; the “% of eGFP + cells, 2 Hr” value came out at 0.0%; the “Inhibition of infected cells” value is listed as 100%. In addition, in assay [3], the Selectivity index is recorded as 21, the IC50 amounted to 1190 nM and the EC (peak activity) turned out to be 3.13 µM.
Take `Brc1ccc(-c2csc3ncnc(Sc4nnc(C5CC5)o4)c23)cc1` [Compound 53, 5-(4-Bromophenyl)-4-[(5-cyclopropyl-1,3,4-oxadiazol-2-yl)sulfanyl]thieno [2,3-d]pyrimidine]: in assay [1], the “Log10 reduction of virus titer” value is 1.8. In addition, the “Inhibition of infected cells” value in assay [2] was determined as 100%.
For `c1ccc2[nH]c(CN3CCCC3)nc2c1` [Compound 40, 2-(1-Pyrrolidinylmethyl)-1H-benzimidazole] the same measures were 4.0 and 100%.
For the compound `COc1ccc2nc(C)n3c4ccccc4c(NC(C)=O)c3c2c1` [Compound 49, N-(2-Methoxy-6-methylindolo[1,2-c]quinazolin-12-yl)acetamide], the “Log10 reduction of virus titer” value in assay [1] stood at 1.0. Further, the “Inhibition of infected cells” value in assay [2] stood at 17.2%.
For `CC(C)n1ncc2c(C(=O)Nc3cccc(-c4nnco4)c3)cc(-c3ccccc3)nc21` [Compound 17, 1-Isopropyl-N-[3-(1,3,4-oxadiazol-2-yl)phenyl]-6-phenyl-1H-pyrazolo[3,4-b]pyridine-4-carboxamide] the same measures were 4.3 and 99.6%.
For `Cc1nc(-c2cccc(NS(=O)(=O)c3ccc4c(c3)CCC(=O)N4)c2)cs1` [Compound 38, N-[3-(2-Methyl-1,3-thiazol-4-yl)phenyl]-2-oxo-1,2,3,4-tetrahydro-6-quinoline-sulfonamide] the same measures were 0.9 and 59.1%.
On the same counts, the results for `NNC(=O)c1cc(-c2ccccc2)nc2ccccc12` [Compound 26, 2-Phenyl-4-quinoline-carbohydrazide] are 2.5 and 98.7%.
`Cl.O[C@@H]1[C@@H](O)C=C2CCN3Cc4cc5c(cc4[C@H]1C23)OCO5` (stereo partly drawn) [Compound 73, (1S,2S,12bS)-2,4,5,7,12b,12c-Hexahydro-1H-[1,3]dioxolo[4,5-j]pyrrolo[3,2,1-de] phenanthridine-1,2-diol hydrochloride (1:1), reference compound]: the “Log10 reduction of virus titer” value in assay [1] was 2.8. The “Inhibition of infected cells” value in assay [2] was 100%.
On the same counts, the results for `O=C(CCCc1nc(-c2ccccc2)no1)N1CCN(C2CCCCC2)C(=O)C1` [Compound 69, 1-Cyclohexyl-4-[4-(3-phenyl-1,2,4-oxadiazol-5-yl)butanoyl]-2-piperazinone] are 2.0 and 96.5%.
Turning to `OC(c1ccccc1)c1nc2ccccc2n1-c1ccccc1` (stereo not shown) [Compound 41, Phenyl(1-phenyl-1H-benzimidazol-2-yl)methanol], the “Log10 reduction of virus titer” value in assay [1] stood at 4.1. Also, the “Inhibition of infected cells” value in assay [2] was found to be 100%.
Regarding `Cc1ccc(NC(=O)c2cc(C3CC3)nc3c2cnn3C(C)C)cc1S(N)(=O)=O` [Compound 11, 6-Cyclopropyl-1-isopropyl-N-(4-methyl-3-sulfamoylphenyl)-1H-pyrazolo[3,4-b]pyridine-4-carboxamide], the “Log10 reduction of virus titer” value in assay [1] came to 4.1. Besides, the “Inhibition of infected cells” value in assay [2] is reported as 99.6%.
Consider `COc1cccc(NC(=O)c2cc(-c3cccs3)nc3c2cnn3C(C)C)c1` [Compound 8, 1-Isopropyl-N-(3-methoxyphenyl)-6-(2-thienyl)-1H-pyrazolo [3,4-b]pyridine-4-carboxamide], for which, in assay [1], the “Log10 reduction of virus titer” value is listed as 4.4. For the same compound, the “Inhibition of infected cells” value in assay [2] was found to be 99.2%.
For `COc1ccc(NC(=O)c2nn(Cc3ccccc3)c(=O)c3ccccc23)cn1` [Compound 64, 3-Benzyl-N-(6-methoxy-3-pyridinyl)-4-oxo-3,4-dihydro-1-phthalazine-carboxamide] the same measures were 4.2 and 100%.
On to `Cl.Cl.OCCN1CCN(CC/C=C2/c3ccccc3Sc3ccc(C(F)(F)F)cc32)CC1` [Compound 70, 2-(4-{(3Z)-3-[2-(Trifluoromethyl)-9H-thioxanthen-9-ylidene]propyl}-1-piperazinyl)ethanol dihydrochloride, reference compound], for which the “Log10 reduction of virus titer” value in assay [1] came out at 3.9. In addition, the “Inhibition of infected cells” value in assay [2] stood at 99.6%.
For `O=C(N/N=C1/c2ccccc2-c2nc3ccccc3nc21)c1cccnc1` [Compound 51, N′-[(11Z)-11H-Indeno[1,2-b]quinoxalin-11-ylidene] nicotinohydrazide] the same measures were 0.1 and 1.6%.
For `Cc1ccc(NC(=O)c2cc(-c3cccs3)nc3c2cnn3C(C)C)c(F)c1` [Compound 5, N-(2-Fluoro-4-methylphenyl)-1-isopropyl-6-(2-thienyl)-1H-pyrazolo[3,4-b] pyridine-4-carboxamide] the same measures were 4.4 and 99.3%.
As for `O=C(Nc1nc(CN2CCOCC2)cs1)c1cc(-c2ccc(Cl)s2)nc2ccccc12` [Compound 34, 2-(5-Chloro-2-thienyl)-N-[4-(4-morpholinylmethyl)-1,3-thiazol-2-yl]-4-quinoline-carboxamide], in assay [1], the “Log10 reduction of virus titer” value was found to be 3.5. For the same compound, the “Inhibition of infected cells” value in assay [2] amounted to 94.4%.
